In ChEMBL document CHEMBL4706711, “Alkaloids of Delphinium grandiflorum and their implication to HO-induced cardiomyocytes injury” (Bioorg Med Chem, 2021):
pIC50: −log10 of the molar value. The source made the active and inactive calls. The rule behind the calls is not given here.

Experiments:
[1] = test system: H9c2; assay: Cytotoxicity against rat H9c2 cells assessed as reduction in cell viability at 50 uM measured after 24 hrs by CCK8 assay; type: cell-based; details: h9c2, 24 h
[2] = test system: H9c2; assay: Cardioprotective activity against rat H9c2 cells assessed as reduction in H2O2-induced cell death at 50 uM preincubated for 24 hrs followed by H2O2 stimulation and measured after 1 hr by CCK8 assay; type: functional, cell-based; details: time 25.0 hrs
[3] = test system: H9c2; assay: Cardioprotective activity against rat H9c2 cells assessed as reduction in H2O2-induced cell death preincubated for 24 hrs followed by H2O2 stimulation and measured after 1 hr by CCK8 assay; type: functional, cell-based
[4] = test system: H9c2; assay: Cardioprotective activity against rat H9c2 cells assessed as reduction in H2O2-induced ROS generation at 2 uM preincubated for 24 hrs followed by H2O2 stimulation and measured after 1 hr by DCFH-DA staining based flow cytometry; type: functional, cell-based; details: time 25.0 hrs
[5] = test system: H9c2; assay: Cardioprotective activity against rat H9c2 cells assessed as reduction in H2O2-induced apoptosis by measuring up regulation of Bcl2 expression at 2 uM preincubated for 24 hrs followed by H2O2 stimulation and measured after 1 hr by Western blot analysis; type: functional, cell-based; details: time 25.0 hrs
[6] = test system: H9c2; assay: Cardioprotective activity against rat H9c2 cells assessed as reduction in H2O2-induced apoptosis by measuring down regulation of Bax expression at 2 uM preincubated for 24 hrs followed by H2O2 stimulation and measured after 1 hr by Western blot analysis; type: functional, cell-based; details: time 25.0 hrs
[7] = test system: H9c2; assay: Cardioprotective activity in H2O2-induced mitochondrial membrane potential loss in rat H9c2 cells assessed as increase in MMP level at 2 uM preincubated for 24 hrs followed by H2O2 stimulation and measured after 1 hr by JC1 staining based flow cytometry; type: functional, cell-based; details: time 25.0 hrs
[8] = test system: H9c2; assay: Activation of AMPKalpha in H2O2-induced rat H9c2 cells assessed as increase in AMPKalpha phosphorylation at […] residues at 2 uM preincubated for 24 hrs followed by H2O2 stimulation and measured after 1 hr by Western blot analysis; details: filed as activator, time 25.0 hrs
[9] = test system: H9c2; assay: Activation of AMPKalpha in H2O2-induced rat H9c2 cells assessed as reduction in AKT expression at 2 uM preincubated for 24 hrs followed by H2O2 stimulation and measured after 1 hr by Western blot analysis; details: filed as activator, time 25.0 hrs
[10] = test system: H9c2; assay: Activation of AMPKalpha in H2O2-induced rat H9c2 cells assessed as reduction in mTOR expression at 2 uM preincubated for 24 hrs followed by H2O2 stimulation and measured after 1 hr by Western blot analysis; details: filed as activator, time 25.0 hrs

Row | SMILES | Activity [1] | Activity [2] | pIC50 [3] | other results
1 | CCN1C(=O)[C@]2(CO)CC[C@H](OC)[C@]34C1[C@](O)([C@@H](OC)[C@H]23)[C@@]1(O)C[C@H](OC)[C@H]2C[C@@H]4[C@@H]1[C@H]2OC | Non-Toxic | Active | 5.73 | Activity [4]: Active; Activity [5]: Active; Activity [6]: Active; Activity [7]: Active; Activity [8]: Active; Activity [9]: Active; Activity [10]: Active
2 | CO[C@H]1[C@@H]2C[C@@H]3[C@H]1[C@](O)(C[C@@H]2OC)[C@@]1(O)C2[N+]([O-])=C[C@]4(CO)CC[C@H](OC)[C@@]23[C@@H]4[C@@H]1OC | – | inactive | – | –
3 | CO[C@H]1[C@@H]2C[C@@H]3[C@H]1[C@](O)(C[C@@H]2OC)C(=O)[C@@H](OC)[C@@H]1[C@@]2(COC(C)=O)CC[C@H](OC)[C@@]31C=[N+]([O-])C2 | – | inactive | – | –
4 | COC(=O)c1ccccc1NC(=O)CC(C)C(=O)O (stereo not drawn) | Non-Toxic | – | 5.72 | –
5 | CCN1C(=O)[C@]2(CO)CC[C@H](OC)[C@]34C1O[C@@](O)([C@@H](OC)[C@H]23)[C@@]1(O)C[C@H](OC)[C@@H]2C[C@@H]4[C@@H]1[C@H]2OC | Non-Toxic | Active | – | –
6 | CCN1C2OC(=O)[C@]3(CO)CC[C@H](OC)C24[C@@H]2C[C@@H]5[C@H](OC)[C@@H]2[C@](O)(C[C@@H]5OC)[C@]1(O)[C@@H](OC)[C@@H]43 | Non-Toxic | Active | – | –
